Laboratory results from the kinase profiling compilation of Christmann-Franck et al. (2016).
Values belong to the molecule of their own block, whether it stands above or below them.

Legend:
Test in all cases: radiometric filter-binding kinase assay, Kinase HotSpot
Conditions in all cases: compound 0.5 µM; ATP 10 µM
[1] = molecular target: STK11 (human) (UniProt Q15831)
[2] = molecular target: AKT3 (human) (UniProt Q9Y243)
[3] = molecular target: DYRK4 (human) (UniProt Q9NR20)
[4] = molecular target: MAPK9 (human) (UniProt P45984)
[5] = molecular target: DYRK1B (human) (UniProt Q9Y463)
[6] = molecular target: FES (human) (UniProt P07332)
[7] = molecular target: DYRK2 (human) (UniProt Q92630)
[8] = molecular target: NTRK2 (human) (UniProt Q16620)
[9] = molecular target: TGFBR2 (human) (UniProt P37173)
[10] = molecular target: NEK6 (human) (UniProt Q9HC98)
[11] = molecular target: EPHA2 (human) (UniProt P29317)
[12] = molecular target: MLTK (human) (UniProt Q9NYL2)
[13] = molecular target: MAPK3 (human) (UniProt P27361)
[14] = molecular target: IRAK4 (human) (UniProt Q9NWZ3)
[15] = molecular target: PKN1 (human) (UniProt Q16512)
[16] = molecular target: ADRBK1 (human) (UniProt P25098)
[17] = molecular target: MYLK (human) (UniProt Q15746)
[18] = molecular target: JAK2 JH1 JH2 (human) (UniProt O60674)
[19] = molecular target: CAMK1G (human) (UniProt Q96NX5)
[20] = molecular target: CSNK1A1 (human) (UniProt P48729)
[21] = molecular target: NLK (human) (UniProt Q9UBE8)
[22] = molecular target: RIPK2 (human) (UniProt O43353)
[23] = molecular target: BLK (human) (UniProt P51451)
[24] = molecular target: PASK (human) (UniProt Q96RG2)
[25] = molecular target: ADRBK2 (human) (UniProt P35626)
[26] = molecular target: TGFBR1 (human) (UniProt P36897)
[27] = molecular target: ERBB4 (human) (UniProt Q15303)
ERBB4 (human), sequence (Q15303 whole entry, looked up): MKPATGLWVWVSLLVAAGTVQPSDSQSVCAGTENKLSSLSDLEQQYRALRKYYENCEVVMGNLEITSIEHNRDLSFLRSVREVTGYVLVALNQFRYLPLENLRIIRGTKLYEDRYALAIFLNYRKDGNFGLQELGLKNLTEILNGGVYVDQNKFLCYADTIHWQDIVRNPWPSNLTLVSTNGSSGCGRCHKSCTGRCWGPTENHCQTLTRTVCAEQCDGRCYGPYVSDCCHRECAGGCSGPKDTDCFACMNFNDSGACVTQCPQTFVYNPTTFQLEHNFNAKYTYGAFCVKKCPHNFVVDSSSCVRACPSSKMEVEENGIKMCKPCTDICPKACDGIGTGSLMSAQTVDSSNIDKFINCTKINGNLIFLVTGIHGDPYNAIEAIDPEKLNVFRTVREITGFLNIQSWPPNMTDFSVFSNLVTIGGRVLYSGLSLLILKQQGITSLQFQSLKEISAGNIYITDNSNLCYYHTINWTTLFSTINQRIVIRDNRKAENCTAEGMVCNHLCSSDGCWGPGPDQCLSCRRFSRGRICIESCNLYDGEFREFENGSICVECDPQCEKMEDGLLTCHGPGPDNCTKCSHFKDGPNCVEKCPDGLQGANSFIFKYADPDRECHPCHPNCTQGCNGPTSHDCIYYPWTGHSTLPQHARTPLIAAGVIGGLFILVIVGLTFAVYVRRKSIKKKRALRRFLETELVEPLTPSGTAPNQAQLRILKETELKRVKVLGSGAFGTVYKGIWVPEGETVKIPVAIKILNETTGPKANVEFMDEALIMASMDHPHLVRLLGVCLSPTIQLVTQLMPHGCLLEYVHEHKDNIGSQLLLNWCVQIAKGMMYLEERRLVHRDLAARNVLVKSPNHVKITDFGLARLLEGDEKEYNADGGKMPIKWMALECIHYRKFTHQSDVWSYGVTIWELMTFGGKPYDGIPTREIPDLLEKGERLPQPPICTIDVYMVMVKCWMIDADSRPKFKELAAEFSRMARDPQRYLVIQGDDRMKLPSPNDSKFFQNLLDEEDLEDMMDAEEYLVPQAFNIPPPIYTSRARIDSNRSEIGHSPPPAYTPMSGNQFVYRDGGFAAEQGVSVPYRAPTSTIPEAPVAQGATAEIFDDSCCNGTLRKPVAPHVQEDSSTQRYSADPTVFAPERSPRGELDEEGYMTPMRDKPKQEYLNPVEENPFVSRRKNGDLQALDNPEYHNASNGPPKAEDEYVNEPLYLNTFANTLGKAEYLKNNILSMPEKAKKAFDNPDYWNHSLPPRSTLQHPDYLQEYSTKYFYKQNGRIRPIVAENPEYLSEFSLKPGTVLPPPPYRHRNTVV

[28] = molecular target: MAPK13 (human) (UniProt O15264)
[29] = molecular target: TAOK1 (human) (UniProt Q7L7X3)
TAOK1 (human), sequence (Q7L7X3 whole entry, looked up): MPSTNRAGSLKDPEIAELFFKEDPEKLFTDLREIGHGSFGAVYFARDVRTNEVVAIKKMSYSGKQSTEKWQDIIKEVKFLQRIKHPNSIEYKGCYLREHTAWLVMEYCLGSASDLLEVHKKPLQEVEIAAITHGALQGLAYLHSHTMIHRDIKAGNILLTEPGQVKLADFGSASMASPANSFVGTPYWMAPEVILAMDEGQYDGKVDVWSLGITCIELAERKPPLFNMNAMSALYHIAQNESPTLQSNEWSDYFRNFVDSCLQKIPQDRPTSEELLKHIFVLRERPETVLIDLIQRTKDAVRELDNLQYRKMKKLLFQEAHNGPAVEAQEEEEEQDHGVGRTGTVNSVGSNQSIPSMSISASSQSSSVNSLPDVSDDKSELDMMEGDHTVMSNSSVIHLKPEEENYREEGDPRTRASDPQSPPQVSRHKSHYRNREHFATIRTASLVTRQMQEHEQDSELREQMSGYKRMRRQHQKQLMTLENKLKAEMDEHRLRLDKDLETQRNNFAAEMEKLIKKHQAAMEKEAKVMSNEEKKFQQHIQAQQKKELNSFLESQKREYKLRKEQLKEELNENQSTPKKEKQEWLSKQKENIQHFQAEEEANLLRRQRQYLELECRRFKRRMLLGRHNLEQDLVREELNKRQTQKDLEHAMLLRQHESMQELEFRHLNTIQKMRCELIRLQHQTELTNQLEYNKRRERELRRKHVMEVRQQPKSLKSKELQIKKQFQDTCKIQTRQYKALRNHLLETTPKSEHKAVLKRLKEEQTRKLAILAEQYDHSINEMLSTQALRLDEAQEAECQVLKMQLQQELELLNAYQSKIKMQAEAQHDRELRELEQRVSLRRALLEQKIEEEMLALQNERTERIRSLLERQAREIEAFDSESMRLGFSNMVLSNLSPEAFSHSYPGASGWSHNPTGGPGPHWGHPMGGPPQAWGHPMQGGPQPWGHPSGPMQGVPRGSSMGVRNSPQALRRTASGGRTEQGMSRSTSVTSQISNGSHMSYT

[30] = molecular target: CLK2 (human) (UniProt P49760)
[31] = molecular target: STK16 (human) (UniProt O75716)
[32] = molecular target: FGFR2 (human) (UniProt P21802)
FGFR2 (human), sequence (P21802 whole entry, looked up): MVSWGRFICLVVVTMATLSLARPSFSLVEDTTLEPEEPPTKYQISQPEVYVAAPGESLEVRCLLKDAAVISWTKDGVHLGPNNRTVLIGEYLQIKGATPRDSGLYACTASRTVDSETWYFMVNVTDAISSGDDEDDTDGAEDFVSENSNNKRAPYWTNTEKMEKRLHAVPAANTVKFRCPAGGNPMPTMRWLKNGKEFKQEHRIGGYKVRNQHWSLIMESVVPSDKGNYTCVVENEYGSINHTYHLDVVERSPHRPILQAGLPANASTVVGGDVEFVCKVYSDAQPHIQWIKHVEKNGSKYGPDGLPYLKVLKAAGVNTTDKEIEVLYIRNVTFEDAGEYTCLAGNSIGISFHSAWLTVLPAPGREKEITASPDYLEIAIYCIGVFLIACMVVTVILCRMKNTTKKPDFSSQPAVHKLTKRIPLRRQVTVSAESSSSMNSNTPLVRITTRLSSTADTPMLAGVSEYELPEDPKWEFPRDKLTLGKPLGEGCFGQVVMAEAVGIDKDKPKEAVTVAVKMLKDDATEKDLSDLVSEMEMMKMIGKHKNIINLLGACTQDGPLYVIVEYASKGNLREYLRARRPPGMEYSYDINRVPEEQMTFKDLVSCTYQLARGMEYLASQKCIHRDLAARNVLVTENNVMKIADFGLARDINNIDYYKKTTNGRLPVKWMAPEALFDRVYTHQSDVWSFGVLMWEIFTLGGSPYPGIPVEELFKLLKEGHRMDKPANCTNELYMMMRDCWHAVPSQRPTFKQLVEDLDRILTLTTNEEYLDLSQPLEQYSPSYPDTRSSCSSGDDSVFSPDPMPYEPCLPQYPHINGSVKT

[33] = molecular target: DCLK2 (human) (UniProt Q8N568)
DCLK2 (human), sequence (Q8N568 whole entry, looked up): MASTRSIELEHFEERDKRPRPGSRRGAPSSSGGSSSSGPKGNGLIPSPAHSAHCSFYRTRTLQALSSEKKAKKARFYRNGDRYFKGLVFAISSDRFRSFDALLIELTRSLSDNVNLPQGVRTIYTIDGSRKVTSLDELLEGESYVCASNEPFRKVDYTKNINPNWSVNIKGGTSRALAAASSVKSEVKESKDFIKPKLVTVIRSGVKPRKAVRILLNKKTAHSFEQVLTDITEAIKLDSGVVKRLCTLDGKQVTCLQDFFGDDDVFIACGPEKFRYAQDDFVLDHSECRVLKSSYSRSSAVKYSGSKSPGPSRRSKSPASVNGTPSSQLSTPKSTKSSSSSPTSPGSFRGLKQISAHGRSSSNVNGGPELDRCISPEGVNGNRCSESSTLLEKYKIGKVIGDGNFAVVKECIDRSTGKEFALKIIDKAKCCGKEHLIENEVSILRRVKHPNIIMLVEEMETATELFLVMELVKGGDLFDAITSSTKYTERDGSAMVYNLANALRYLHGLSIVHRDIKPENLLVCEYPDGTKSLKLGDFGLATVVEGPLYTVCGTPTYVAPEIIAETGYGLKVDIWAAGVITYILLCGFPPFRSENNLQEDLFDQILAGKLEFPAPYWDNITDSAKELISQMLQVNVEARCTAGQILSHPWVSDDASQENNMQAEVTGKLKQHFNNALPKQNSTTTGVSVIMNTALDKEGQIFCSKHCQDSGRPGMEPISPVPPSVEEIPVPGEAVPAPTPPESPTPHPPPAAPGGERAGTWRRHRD

[34] = molecular target: CHEK1 (human) (UniProt O14757)
[35] = molecular target: KDR (human) (UniProt P35968)
[36] = molecular target: TBK1 (human) (UniProt Q9UHD2)
[37] = molecular target: CDK9 CCNT1 (human) (UniProt P50750+O60563)
[38] = molecular target: RET (human) (UniProt P07949)
RET (human), sequence (P07949 whole entry, looked up): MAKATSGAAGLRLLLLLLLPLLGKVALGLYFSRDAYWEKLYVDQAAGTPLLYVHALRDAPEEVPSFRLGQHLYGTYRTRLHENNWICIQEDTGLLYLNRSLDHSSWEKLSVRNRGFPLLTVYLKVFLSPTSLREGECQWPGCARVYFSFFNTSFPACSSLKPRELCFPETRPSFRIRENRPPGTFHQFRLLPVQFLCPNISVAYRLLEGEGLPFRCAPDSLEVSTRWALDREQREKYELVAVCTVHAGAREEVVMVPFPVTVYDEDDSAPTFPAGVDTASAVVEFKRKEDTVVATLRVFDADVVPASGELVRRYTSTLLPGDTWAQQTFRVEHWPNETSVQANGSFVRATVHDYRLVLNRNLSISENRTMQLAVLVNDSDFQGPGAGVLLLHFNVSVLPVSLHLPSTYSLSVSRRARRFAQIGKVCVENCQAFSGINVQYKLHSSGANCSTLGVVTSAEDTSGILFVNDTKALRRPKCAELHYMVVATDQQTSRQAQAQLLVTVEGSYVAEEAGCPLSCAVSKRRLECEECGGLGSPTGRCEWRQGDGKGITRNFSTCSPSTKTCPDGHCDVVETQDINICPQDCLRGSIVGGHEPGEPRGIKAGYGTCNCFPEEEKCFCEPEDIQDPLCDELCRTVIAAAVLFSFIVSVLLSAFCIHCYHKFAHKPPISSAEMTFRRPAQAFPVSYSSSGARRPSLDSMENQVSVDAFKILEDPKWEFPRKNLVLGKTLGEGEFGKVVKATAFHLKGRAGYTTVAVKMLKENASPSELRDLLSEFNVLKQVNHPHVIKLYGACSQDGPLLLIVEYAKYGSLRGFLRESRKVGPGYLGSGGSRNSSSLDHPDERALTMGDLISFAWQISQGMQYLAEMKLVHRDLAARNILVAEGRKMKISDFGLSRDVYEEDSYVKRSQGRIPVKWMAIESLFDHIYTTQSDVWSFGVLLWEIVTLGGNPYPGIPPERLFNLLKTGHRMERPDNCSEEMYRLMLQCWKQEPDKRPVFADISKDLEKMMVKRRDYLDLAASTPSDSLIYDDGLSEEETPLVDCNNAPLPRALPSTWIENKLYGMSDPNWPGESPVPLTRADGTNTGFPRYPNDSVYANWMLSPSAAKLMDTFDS

[39] = molecular target: SYK (human) (UniProt P43405)
[40] = molecular target: CDK7 CCNH MNAT1 (human) (UniProt P50613+P51948+P51946)
[41] = molecular target: FLT1 (human) (UniProt P17948)
[42] = molecular target: CAMK1 (human) (UniProt Q14012)

Compound: Cn1nc2c3c(cccc31)C(=O)c1ccccc1-2
- residual activity [1]: 87.7%
- residual activity [2]: 102%
- residual activity [3]: 91.2%
- residual activity [4]: 85.2%
- residual activity [5]: 93.1%
- residual activity [6]: 94.4%
- residual activity [7]: 99.4%
- residual activity [8]: 84%
- residual activity [9]: 94.9%
- residual activity [10]: 108%
- residual activity [11]: 104%
- residual activity [12]: 83.1%
- residual activity [13]: 98.9%
- residual activity [14]: 97.3%
- residual activity [15]: 101%
- residual activity [16]: 103%
- residual activity [17]: 77.4%
- residual activity [18]: 95.9%
- residual activity [19]: 95.5%
- residual activity [20]: 47.8%
- residual activity [21]: 100%
- residual activity [22]: 75.7%
- residual activity [23]: 106%
- residual activity [24]: 94.6%
- residual activity [25]: 93.6%
- residual activity [26]: 93.7%
- residual activity [27]: 94.3%
- residual activity [28]: 106%
- residual activity [29]: 100%
- residual activity [30]: 94.5%
- residual activity [31]: 83.3%
- residual activity [32]: 105%
- residual activity [33]: 94.2%
- residual activity [34]: 93.7%
- residual activity [35]: 101%
- residual activity [36]: 88.8%
- residual activity [37]: 94.7%
- residual activity [38]: 83.8%
- residual activity [39]: 94.8%
- residual activity [40]: 98.8%
- residual activity [41]: 84.3%
- residual activity [42]: 104%

Compound: COc1cc2ncc(-c3ccccc3)nc2cc1OC
- residual activity [1]: 86.8%
- residual activity [2]: 94.5%
- residual activity [3]: 112%
- residual activity [4]: 93.1%
- residual activity [5]: 110%
- residual activity [6]: 105%
- residual activity [7]: 95.9%
- residual activity [8]: 99.5%
- residual activity [9]: 75%
- residual activity [10]: 93.8%
- residual activity [11]: 102%
- residual activity [12]: 94.7%
- residual activity [13]: 97.6%
- residual activity [14]: 90.6%
- residual activity [15]: 104%
- residual activity [16]: 95.8%
- residual activity [17]: 97.4%
- residual activity [18]: 94.4%
- residual activity [19]: 95.1%
- residual activity [20]: 100%
- residual activity [21]: 89.3%
- residual activity [22]: 90.3%
- residual activity [23]: 103%
- residual activity [24]: 98.9%
- residual activity [25]: 94.3%
- residual activity [26]: 101%
- residual activity [27]: 65.9%
- residual activity [28]: 89.6%
- residual activity [29]: 104%
- residual activity [30]: 87.4%
- residual activity [31]: 93.5%
- residual activity [32]: 103%
- residual activity [33]: 96%
- residual activity [34]: 94.7%
- residual activity [35]: 85.4%
- residual activity [36]: 87.2%
- residual activity [37]: 83.2%
- residual activity [38]: 84.4%
- residual activity [39]: 92.5%
- residual activity [40]: 109%
- residual activity [41]: 85%
- residual activity [42]: 90.4%

Compound: O=C1NC(=O)C(c2c[nH]c3ccccc23)=C1c1c[nH]c2ccccc12
- residual activity [1]: 107%
- residual activity [2]: 90%
- residual activity [3]: 94.3%
- residual activity [4]: 95.4%
- residual activity [5]: 86.8%
- residual activity [6]: 99.8%
- residual activity [7]: 97.7%
- residual activity [8]: 90.7%
- residual activity [9]: 95.5%
- residual activity [10]: 101%
- residual activity [11]: 91.6%
- residual activity [12]: 107%
- residual activity [13]: 105%
- residual activity [14]: 92%
- residual activity [15]: 84.6%
- residual activity [16]: 98.4%
- residual activity [17]: 74.4%
- residual activity [18]: 100%
- residual activity [19]: 99.5%
- residual activity [20]: 98.4%
- residual activity [21]: 103%
- residual activity [22]: 97%
- residual activity [23]: 93.7%
- residual activity [24]: 90.8%
- residual activity [25]: 87%
- residual activity [26]: 96.6%
- residual activity [27]: 110%
- residual activity [28]: 104%
- residual activity [29]: 93.7%
- residual activity [30]: 46.7%
- residual activity [31]: 94.2%
- residual activity [32]: 89.4%
- residual activity [33]: 89.3%
- residual activity [34]: 93.1%
- residual activity [35]: 60.8%
- residual activity [36]: 84%
- residual activity [37]: 89.9%
- residual activity [38]: 80.6%
- residual activity [39]: 103%
- residual activity [40]: 94.4%
- residual activity [41]: 53.9%
- residual activity [42]: 105%

- residual activity [1]: 73.6%
- residual activity [2]: 95.1%
- residual activity [3]: 96.7%
- residual activity [4]: 90.5%
- residual activity [5]: 96%
- residual activity [6]: 115%
- residual activity [7]: 94.4%
- residual activity [8]: 38.4%
- residual activity [9]: 132%
- residual activity [10]: 100%
- residual activity [11]: 95.8%
- residual activity [12]: 77%
- residual activity [13]: 93.7%
- residual activity [14]: 94.1%
- residual activity [15]: 96.1%
- residual activity [16]: 108%
- residual activity [17]: 74.2%
- residual activity [18]: 105%
- residual activity [19]: 101%
- residual activity [20]: 68.5%
- residual activity [21]: 106%
- residual activity [22]: 108%
- residual activity [23]: 25.6%
- residual activity [24]: 86.2%
- residual activity [25]: 95.7%
- residual activity [26]: 101%
- residual activity [27]: 101%
- residual activity [28]: 91.5%
- residual activity [29]: 126%
- residual activity [30]: 96.8%
- residual activity [31]: 76.5%
- residual activity [32]: 85.8%
- residual activity [33]: 90.2%
- residual activity [34]: 100%
- residual activity [35]: 74.2%
- residual activity [36]: 78.5%
- residual activity [37]: 91.5%
- residual activity [38]: 6.58%
- residual activity [39]: 88.3%
- residual activity [40]: 91.1%
- residual activity [41]: 98.6%
- residual activity [42]: 102%
Compound: CC(=O)O/N=C1\C(=C2\C(=O)Nc3cc(Br)ccc32)Nc2ccccc21
